# Results as given in patent US10183033B2, “Triptolide prodrugs” (priority 2009, dated 2019).
# Counter-ions that a name gives are not always drawn. Like-named read-outs stand apart in the source and are kept apart here.
# How the values were obtained:
# [1] = tested on: alkaline phosphatase (from bovine intestinal mucosa, Type VII-S); test: In vitro enzymatic conversion (hydrolysis) by alkaline phosphatase; assay type: in vitro ADME; conditions: alkaline phosphatase in glycine buffer (pH 9.8), FIG. 3
# Method: (§1) Compound 1 is converted into the active triptolide form by action of the enzyme alkaline phosphatase. An in vitro experiment to study the bioconversion of the triptolide prodrug compound of the invention was performed. In vitro bioconversion was simulated using alkaline phosphatase (from bovine intestinal mucosa, Type VII-S available from Sigma-Aldrich (St. Louis, Mo.) in glycine buffer (pH 9.8).
# (§2) The first order degradation constant was calculated by fitting the remaining concentration versus the incubation time. The degradation half-life (t½) of compound 1 was determined to be 2 minutes.
# alkaline phosphatase = test: as above; assay type: in vitro ADME, bovine; conditions: bovine
# Method: as §1, §2
# MiaPaca-2 cells = test: Comparative in vivo study, orthotopic MiaPaca-2 pancreatic tumor in nude mice; conditions: i.p. daily 60 days
# Method: Thirty nude mice of the strain athymic nu/nu were obtained from National Cancer Institute (NCI) (Rockville, Md.) and kept in a RAR facility. The mice were anaesthetized in accordance with the recommendations of the RAR facility using ketamine 75-200 mg/kg and xylazine 4-8 mg/kg. A small incision 3 mm was made on the left side of the abdominal wall and the spleen was pulled out with forceps far enough to expose and access the pancreas. MiaPaca-2 cell medium was prepared and kept on ice until delivery into the mice. Into each of the mice, 1 million MiaPaca-2 cells suspended in MATRIGEL™ (available from Becton-Dickinson Corporation, Franklin Lakes, N.J.) was injected into the tail of the pancreas (identified by its anatomical attachment with the spleen) using a Hamilton syringe. Following delivery of the cells, the syringe was held steady for an additional 5-10 seconds to permit the MATRIGEL™ to set. The spleen was replaced back into the abdominal cavity, and the abdominal wall was closed by vicryl suture in a continuous manner. The skin was apposed and closed using wound clips. The mice were then transferred to a heating pad until fully recovered before being returned to the cage. Post-operative pain medication (buprenonorphine 0.1 mg/kg) was administered intraperitoneally immediately after full recovery from anaesthesia to prevent respiratory depression and then administered every 12 hours for 2 days. The wound clips were removed from the mice after 7 days of surgery.
# The mice were then randomized into 3 groups, each group having 10 mice. The groups were as follows: control group, triptolide group and the triptolide prodrug (compound 1) group. The control group consisted of mice that were injected intraperitoneally with vehicle DMSO.
# The triptolide group subjects were injected with 0.2 mg/kg of triptolide dissolved in DMSO and diluted with phosphate buffered saline to a volume of 100 the intraperitoneal injections being daily over a period of 60 days. The compound 1 subjects were intraperitoneally injected daily for 60 days with 0.28 mg/kg of the compound dissolved in phosphate buffered saline diluted to a volume of 100 μl.
# The mice were euthanized under anaesthesia at the conclusion of the 60 day treatments. Samples were collected (blood, lung, spleen, liver, kidneys and tumor tissue), and tumor volume and weight were measured and compared among the different groups. Observations were made on the loco-regional growth and cancer growth.
# MIA PaCa-2 cells = test: Orthotopic mouse model of pancreatic cancer (60 day dosing study); assay type: in vivo, mice; conditions: i.p. 60 d, compound 1 0.1-0.9 mg/kg; for survival versus vehicle: triptolide 0.2 mg/kg QD, observed another 28 d, FIG. 13, 14
# Method: MIA PaCa-2 cells (1×10^6) were suspended in matrigel and injected into the tail of the pancreas of 4-6 week old female nude mice. Ten days post-cell implantation, mice were injected intraperitoneally with indicated concentrations of compound 1 (0.1, 0.15, 0.3, 0.6 or 0.9 mg/kg) or 0.2 mg/kg Triptolide QD for 60 d. Control mice were injected with saline BID. […] Tumor samples, if any, were harvested from these mice, and tumor weight and volume measured. If tumor burden exceeded University of Minnesota animal care guidelines, mice were sacrificed at earlier time points and their tumors harvested.
# [2] = tested on: S2013, a highly metastatic pancreatic cancer cell line; test: Orthotopic mouse model of pancreatic cancer (21 day dosing study); assay type: in vivo, mice; conditions: 0.42 mg/kg i.p. for 21 d; FIG. 16
# Method: 1×10^6 Cells of S2013, a highly metastatic pancreatic cancer cell line, were suspended in matrigel and injected into the tail of the pancreas of 4-6 week old female nude mice. Seven days post-cell implantation, mice were injected intraperitoneally with 0.42 mg/kg of compound 1 for 21 d. Treatment was stopped after 21 d, and mice sacrificed. Tumor samples, if any, were harvested from these mice, and tumor weight and volume measured. If tumor burden exceeded University of Minnesota animal care guidelines, mice were sacrificed and their tumors harvested at an earlier time point. Control mice were injected with saline QD.
# SkChA-1 cells = test: Subcutaneous mouse model of cholangiocarcinoma; assay type: in vivo, mice; conditions: 0.3 mg/kg i.p. BID for 25 days; FIG. 17
# Method: SkChA-1 cells (5×10^5) were suspended in matrigel and injected subcutaneously into the left flank of 4-6 week old female nude mice. Seven days post-cell implantation, mice were injected intraperitoneally with 0.3 mg/kg of compound 1 BID for 25 days. Treatment was stopped at this point, and mice sacrificed. Tumor samples, if any, were harvested from these mice, and tumor weight and volume measured. If tumor burden exceeded University of Minnesota animal care guidelines, mice were sacrificed and their tumors harvested at an earlier time point. Control mice were injected with saline BID.
# [3] = Tris buffer (pH 7.4) and Borate buffer (pH 7.4), room temperature
# [4] = tested on: Pancreatic cancer cells (MiaPaca-2, Panc-1, S2VP10); test: Comparative in vitro cell viability (Dojindo Cell Counting Kit-8); conditions: 50 to 200 nmol/L, 24 and 48 hours; prodrug with alkaline phosphatase; FIG. 4-6
# Neuroblastoma N2 cells = test: Orthotopic mouse model of neuroblastoma; assay type: in vivo; conditions: 0.4 mg/kg i.p. for 21 days, A/J immunocompetent mice; FIG. 18
# Method: Neuroblastoma N2 cells (1×10^6) were suspended in matrigel and injected into the left retroperitoneal space of 4-6 week old A/J immunocompetent mice. Three days post-cell implantation, mice were injected with 0.4 mg/kg of triptolide intraperitoneally for 21 days. Treatment was stopped at this point, and mice sacrificed. Tumor samples, if any, were harvested from these mice, and tumor weight and volume measured. If tumor burden exceeded University of Minnesota animal care guidelines, mice were sacrificed and their tumors harvested at an earlier time point. Control mice were injected with DMSO for 21 days.
# Neuroblastoma N2a = test: Neuroblastoma cell killing; assay type: cell-based
# Method: (§3) Neuroblastoma N2a and SKNSH cells were treated with triptolide, resulting in dose- and time-dependent cell killing in N2a, with more than 50% of cells killed with 62.5 nM triptolide at 24 hours and nearly 85% of cells killed with 250 nM triptolide at 48 hours (FIG. 19). To confirm the hypothesis that triptolide results in neuroblastoma cell death via an apoptotic pathway, caspase-3 activity was measured as a marker of apoptosis. In both cell lines, increases in caspase activity with higher doses of triptolide and longer duration of therapy.
# caspase-3 = test: Caspase-3 activity in neuroblastoma cells; assay type: cell-based; conditions: N2a and SKNSH cells; FIG. 20
# Method: as §3
# [5] = triptolide 0.2 mg/kg, compound 1 0.28 mg/kg
# [6] = pH 9.8, Alkaline Phosphatase, 37° C., read-out: Enzymatic Hydrolysis (t½), Alkaline Phosphatase, 37° C.
smiles,measurement,setting,value
"CC(C)[C@]12O[C@H]1[C@@H]1O[C@]13[C@]1(O[C@H]1C[C@H]1C4=C(CC[C@@]13C)C(=O)OC4)[C@@H]2OCOP(=O)(O)O [Compound 1, 14-O-Phosphonooxymethyltriptolide Disodium Salt]",time period in which the majority of conversion to triptolide took place,[1],≤ 10 min
same,half-life,"alkaline phosphatase; alkaline phosphatase in glycine buffer (pH 9.8), first order fit, read-out: degradation half-life (t½)",2 min
same,pancreatic tumor growth inhibition vs untreated control,MiaPaca-2 cells; 0.28 mg/kg compound 1,considerable pancreatic tumor growth inhibition
same,impact on body weight,MiaPaca-2 cells; [5],no apparent significant impact
same,signs of toxicity,MiaPaca-2 cells; [5],no apparent signs of toxicity
same,tumor volume vs untreated control,MiaPaca-2 cells; [5],significantly reduced
same,tumor burden (tumor volume or tumor weight) versus control,MIA PaCa-2 cells; FIG. 15,decreased tumor burden
same,survival versus vehicle,MIA PaCa-2 cells,enhanced survival
same,tumor burden (tumor volume or tumor weight) versus control,[2],decreased tumor burden
same,tumor burden (tumor volume or tumor weight) versus control,SkChA-1 cells,decreased tumor burden
same,degradation after 1 month,[3],no degradation
same,pancreatic cell viability,[4],significantly reduced
"CC(O[C@@H]1[C@@]2(C(C)C)O[C@H]2[C@@H]2O[C@]23[C@]12O[C@H]2C[C@H]1C2=C(CC[C@@]13C)C(=O)OC2)OP(=O)(O)O (stereo partly drawn) [Example 3, 14-O-Phosphonooxyethyltriptolide Disodium Salt]",half-life,alkaline phosphatase; [6],9 min
"CCC(O[C@@H]1[C@@]2(C(C)C)O[C@H]2[C@@H]2O[C@]23[C@]12O[C@H]2C[C@H]1C2=C(CC[C@@]13C)C(=O)OC2)OP(=O)(O)O (stereo partly drawn) [Example 4, 14-O-Phosphonooxypropyltriptolide Disodium Salt]",half-life,alkaline phosphatase; [6],17 min
CC(C)[C@]12O[C@H]1[C@@H]1O[C@]13[C@]1(O[C@H]1C[C@H]1C4=C(CC[C@@]13C)C(=O)OC4)[C@@H]2O [triptolide],tumor volume vs untreated control,MiaPaca-2 cells; [5],significantly reduced
same,survival versus vehicle,MIA PaCa-2 cells,enhanced survival
same,tumor burden (tumor volume and tumor mass) versus control,Neuroblastoma N2 cells,decreased tumor burden
same,cells killed,"Neuroblastoma N2a; 62.5 nM, 24 hours",more than 50%
same,cells killed,"Neuroblastoma N2a; 250 nM, 48 hours",~85%
same,caspase-3 activity levels,caspase-3,dose- and time-dependent increases
same,pancreatic cell viability,[4],significantly reduced
